Reference: ChEMBL document CHEMBL3046180, “Antifungal activity of some diaryl ethers” (2007)

Legend:
Assay type in all cases: functional
Conditions in all cases: 96 h, read-out: GI
[1] = test system: Alternaria brassicae; assay: Growth inhibition of Alternaria brassicae at 50 ug/ml after 4 days by poisoned food technique
[2] = test system: Alternaria alternata; assay: Growth inhibition of Alternaria alternata at 500 ug/ml after 4 days by poisoned food technique
[3] = test system: Fusarium oxysporum f. sp. cucumerinum; assay: Growth inhibition of Fusarium oxysporum f. sp. cucumerinum at 500 ug/ml after 4 days by poisoned food technique
[4] = test system: Bipolaris sorokiniana; assay: Growth inhibition of Bipolaris sorokiniana at 500 ug/ml after 4 days by poisoned food technique
[5] = test system: Pyricularia oryzae; assay: Growth inhibition of Magnaporthe oryzae at 500 ug/ml after 4 days by poisoned food technique
[6] = test system: Alternaria alternata; assay: Growth inhibition of Alternaria alternata at 50 ug/ml after 4 days by poisoned food technique
[7] = test system: Fusarium oxysporum f. sp. vasinfectum; assay: Growth inhibition of Fusarium oxysporum f. sp. vasinfectum at 500 ug/ml after 4 days by poisoned food technique
[8] = test system: Fusarium oxysporum f. sp. vasinfectum; assay: Growth inhibition of Fusarium oxysporum f. sp. vasinfectum at 50 ug/ml after 4 days by poisoned food technique
[9] = test system: Alternaria brassicae; assay: Growth inhibition of Alternaria brassicae at 500 ug/ml after 4 days by poisoned food technique
[10] = test system: Pyricularia oryzae; assay: Growth inhibition of Magnaporthe oryzae at 50 ug/ml after 4 days by poisoned food technique
[11] = test system: Fusarium oxysporum f. sp. cucumerinum; assay: Growth inhibition of Fusarium oxysporum f. sp. cucumerinum at 50 ug/ml after 4 days by poisoned food technique
[12] = test system: Fusarium graminearum; assay: Growth inhibition of Fusarium graminearum at 500 ug/ml after 4 days by poisoned food technique
[13] = test system: Fusarium graminearum; assay: Growth inhibition of Fusarium graminearum at 50 ug/ml after 4 days by poisoned food technique
[14] = test system: Bipolaris sorokiniana; assay: Growth inhibition of Bipolaris sorokiniana at 50 ug/ml after 4 days by poisoned food technique

Compound | inhibition of growth at 50 µg/mL [1] | inhibition of growth at 500 µg/mL [2] | inhibition of growth at 500 µg/mL [3] | inhibition of growth at 500 µg/mL [4] | inhibition of growth at 500 µg/mL [5] | inhibition of growth at 50 µg/mL [6] | inhibition of growth at 500 µg/mL [7] | inhibition of growth at 50 µg/mL [8] | inhibition of growth at 500 µg/mL [9] | inhibition of growth at 50 µg/mL [10] | inhibition of growth at 50 µg/mL [11] | inhibition of growth at 500 µg/mL [12] | inhibition of growth at 50 µg/mL [13] | inhibition of growth at 50 µg/mL [14]
CC(C)(C)c1ccc(Oc2ccccc2[N+](=O)[O-])cc1 | 38.4% | 53.3% | 17.3% | 38.7% | 44.8% | 33% | 11.2% | 19.3% | 37.4% | 37.9% | 8.4% | 52.7% | 38.8% | 50.3%
Cc1cccc(Oc2ccccc2[N+](=O)[O-])c1 | 58.9% | 74.5% | 46% | 58.5% | 82.8% | 49% | 46.7% | 53.2% | 73.9% | 56.3% | 50.2% | 70.1% | 38.8% | 85.5%
O=[N+]([O-])c1ccccc1Oc1ccc(Cl)cc1 | 61% | 71.7% | 50.2% | 40.9% | 69% | 51.8% | 47.5% | 40.3% | 74.3% | 48.3% | 44.9% | 73.6% | 59.7% | 79.9%
O=[N+]([O-])c1ccccc1Oc1ccccc1Cl | 64.5% | 74% | 53.8% | 71.1% | 71.6% | 52.8% | 58% | 59.7% | 76.2% | 51% | 48% | 78.6% | 65.2% | 88.7%
O=[N+]([O-])c1ccc(Oc2ccc(Cl)cc2)cc1 | 42.7% | 61.3% | 38% | 74.3% | 63.8% | 47.4% | 43.4% | 41.4% | 47.2% | 47.6% | 34.1% | 66.8% | 63% | 78.1%
CC(C)(C)c1ccc(Oc2ccc([N+](=O)[O-])cc2)cc1 | 32% | 27.7% | 10.3% | 23.5% | 40.4% | 25.5% | 67.7% | 14.1% | 32% | 32% | 3.6% | 56% | 55.6% | 21.6%
Cc1cccc(Oc2ccc([N+](=O)[O-])cc2)c1 | 37.3% | 61.2% | 64.6% | 32% | 60.3% | 48.4% | 74.3% | 65.1% | 52.8% | 39.2% | 57.9% | 92.4% | 62.8% | 44.4%
O=[N+]([O-])c1ccc(Oc2ccccc2Cl)cc1 | 36% | 81.9% | 75.5% | 66% | 77.5% | 60.4% | 55.6% | 47.5% | 65.3% | 47.8% | 38.8% | 92.8% | 79.5% | 89.5%
